In PMC6983023, “Identification of Potential Dipeptidyl Peptidase (DPP)-IV Inhibitors among Moringa oleifera Phytochemicals by Virtual Screening, Molecular Docking Analysis, ADME/T-Based Prediction, and In Vitro Analyses” (Molecules, 2020):

What was measured:
DPP-IV = target: T1, DPP-IV (Homo sapiens, UniProt P27487); test: In vitro DPP-IV inhibition assay (fluorescence, Abnova kit KA1311); assay type: biochemical; settings: for inhibition at 100 µM: compound concentration 100 μM, read-out: inhibition rate; for IC50: fluorescence detection, 37 °C, 30 min
T1 construct: purchased Abnova Co. Ltd. (Taipei, Taiwan) KA1311
Procedure: A DPP-IV Inhibitor Screening Assay Kit (KA1311) was purchased from Abnova Co. Ltd. (Taipei, Taiwan). […] The in vitro inhibitory activity of each compound against DPP-IV was determined based on a fluorescence detection method. […] Additionally, a “100% initial activity well” (10 μL dimethyl sulfoxide [DMSO], 30 μL DPP assay buffer, and 10 μL DPP-IV) and a “background well” (10 μL DMSO and 40 μL DPP assay buffer) were prepared. Next, 50 μL of DPP was added to each well and incubated at 37 °C for 30 min. A FlexStation 3 multifunctional microplate reader (Molecular Devices, Sunnyvale, CA, USA) was used to detect the fluorescence value (excitation wavelength: 350–360 nm; emission wavelength: 450–465 nm). […] IC50 values were then calculated using GraphPad Prism 5 (GraphPad Software, La Jolla, CA, USA).

[1] = set-up: method as in doi:10.1002/ptr.2650080207; settings: cited from earlier work
[2] = test system: c-Jun N-terminal kinase (JNK) and p38 pathways; set-up: method as in PMID 25448500; settings: induced by LPS stimulation; cited from earlier work
Cathepsin B = test system: Cathepsin B; set-up: method as in PMID 11440138; settings: cited from earlier work
Cathepsin L = test system: Cathepsin L; set-up: method as in PMID 11440138; settings: cited from earlier work
arthritis in rats = test system: arthritis in rats; set-up: method as in PMID 11440138; settings: cited from earlier work

T1 sequence (P27487 whole entry): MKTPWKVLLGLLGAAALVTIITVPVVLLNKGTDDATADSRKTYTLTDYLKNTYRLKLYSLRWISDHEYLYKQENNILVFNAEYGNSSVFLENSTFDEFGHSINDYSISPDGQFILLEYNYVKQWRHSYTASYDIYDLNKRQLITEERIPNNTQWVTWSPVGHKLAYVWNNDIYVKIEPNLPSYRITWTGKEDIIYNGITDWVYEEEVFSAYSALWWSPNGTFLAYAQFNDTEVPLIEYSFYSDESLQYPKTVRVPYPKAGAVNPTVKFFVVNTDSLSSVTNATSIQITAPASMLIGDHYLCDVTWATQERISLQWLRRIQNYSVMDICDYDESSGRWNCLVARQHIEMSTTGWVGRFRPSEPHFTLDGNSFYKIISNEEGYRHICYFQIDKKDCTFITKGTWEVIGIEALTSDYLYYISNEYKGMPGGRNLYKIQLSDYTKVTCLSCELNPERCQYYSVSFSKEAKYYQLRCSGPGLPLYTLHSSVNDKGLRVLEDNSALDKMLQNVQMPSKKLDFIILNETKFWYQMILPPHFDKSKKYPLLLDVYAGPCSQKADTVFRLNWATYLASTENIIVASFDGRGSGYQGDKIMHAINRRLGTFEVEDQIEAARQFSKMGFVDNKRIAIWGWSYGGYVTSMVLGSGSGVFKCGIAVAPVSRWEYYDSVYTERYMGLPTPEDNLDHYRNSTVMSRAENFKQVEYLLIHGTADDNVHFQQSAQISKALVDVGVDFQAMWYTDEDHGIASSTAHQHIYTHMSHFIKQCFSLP

| Compound | inhibition at 100 µM (DPP-IV) [%] | IC50 (DPP-IV) [µM] | hypotensive effect [1] | inhibition of JNK and p38 pathways [2] | Cathepsin B inhibition (Cathepsin B) | Cathepsin L inhibition (Cathepsin L) | effect on arthritis (arthritis in rats) |
| --- | --- | --- | --- | --- | --- | --- | --- |
| CCOC(=O)NCc1ccc(O[C@@H]2O[C@@H](C)[C@H](O)[C@@H](O)[C@H]2O)cc1 [Compound 1, O-Ethyl-4-[(α-L-rhamnosyloxy)benzyl] carbamate] | 71.2 | 0.798 | a certain hypotensive effect |  |  |  |  |
| C[C@@H]1O[C@@H](Oc2ccc(CN=C=S)cc2)[C@H](O)[C@H](O)[C@H]1O [Compound 2, 4-[(α-L-rhamnosyloxy)benzyl] Isothiocyanate] | 30.9 | 158 |  |  |  |  |  |
| CC(=O)OC[C@H](Cc1ccccc1)NC(=O)[C@H](Cc1ccccc1)NC(=O)c1ccccc1 [Compound 3, Aurantiamide acetate] | 23.5 | 191 |  | inhibit | inhibiting | inhibiting | relieves arthritis |
